How the values were obtained:
[1] = test system: pCXN2-G6-transfected HCT-15 cell; experiment: Sugar chain synthesis inhibitors: FACS analysis with OSK28 of poly-N-acetyllactosamine sugar chains; assay type: cell-based, human; conditions: cultured for 5 days
Method: The HCT-15 cells transfected with pCXN2-G6 or pCXN2 prepared in the above (2) (each 5×10^6 cells) were washed by using 3 ml of a phosphate buffer PBS (8 g/l NaCl, 0.2 g/l KCl, 1.15 g/l Na2HPO4 (anhydrous) and 0.2 g/l KH2PO4).
The cells (about 1×10^6 cells) described above were put into a microtube (1.5 ml, manufactured by Eppendorf) and the cells were collected by centrifugation (550×g, 7 minutes).
The cells were washed with 0.9 ml of 0.1% sodium azide-containing PBS (A-PBS: 8 g/l NaCl, 0.2 g/l KCl, 1.15 g/l Na2HPO4 (anhydrous), 0.2 g/l KH2PO4 and 0.1% sodium azide), and then the washed cells were suspended in 100 μl of an antibody (OSK28) capable of recognizing a poly-N-acetyllactosamine sugar chain diluted with A-PBS to give a concentration of 10 μg/ml (20 times dilution of the following purified antibody) and allowed to react at 4° C. for 30 minutes in the dark.
After the reaction, the cells are washed twice with 3 ml of A-PBS, suspended in 100 μl of an FITC-labeled anti-human IgM antibody [manufactured by Medical & Biological Laboratories (MBL)] diluted to 10 μg/ml, and then allowed to react at 4° C. for 1 hour. After the reaction, the cells were washed twice with 3 ml of A-PBS, suspended in 200 μl of PBS containing 0.5% p-formaldehyde and then immobilized. The cells were analyzed by using FACS (Epics Elite Flow Cytometer). […]

G6 polypeptide = target: T1, G6 polypeptide (Homo sapiens, UniProt Q9BYG0); experiment: β1,3-N-acetylglucosaminyltransferase activity of cell extract of Namalwa cells transfected with pAMo-G6, glycolipid substrates; assay type: biochemical; conditions: for conversion efficiency into the product: 250 μmol/l glycolipid, 37° C., 16 hours
T1 construct: In order to obtain a DNA encoding the full-length G6 polypeptide, PCR was carried out; expressed in transfected cells; Triton X-100 cell extract
T1 sequence (Q9BYG0 1-378): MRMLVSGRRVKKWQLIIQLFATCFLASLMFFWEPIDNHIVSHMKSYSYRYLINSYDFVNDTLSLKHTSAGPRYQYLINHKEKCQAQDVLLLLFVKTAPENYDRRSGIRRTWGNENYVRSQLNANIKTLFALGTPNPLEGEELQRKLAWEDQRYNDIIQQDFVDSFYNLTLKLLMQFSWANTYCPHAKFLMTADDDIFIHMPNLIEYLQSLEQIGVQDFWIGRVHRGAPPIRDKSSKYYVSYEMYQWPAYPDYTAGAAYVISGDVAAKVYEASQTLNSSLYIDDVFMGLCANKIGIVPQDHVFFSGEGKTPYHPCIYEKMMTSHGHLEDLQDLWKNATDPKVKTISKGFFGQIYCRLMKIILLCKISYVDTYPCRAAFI
Method: β1,3-N-Acetylglucosaminyltransferase activity of G6 polypeptide was measured by using glycolipids as substrates according to known methods [FEBS, 462, 289 (1999), J. Biol. Chem., 269, 14730-14737 (1994), J. Biol. Chem., 267, 23507 (1992), J. Biol. Chem., 267, 2994 (1992)]. Specifically, the reaction was carried out at 37° C. for 16 hours in 20 μl of reaction solution [150 mmol/l sodium cacodylate (pH 7.2), 10 mmol/l UDP-GlcNAc (manufactured by SIGMA), 480 μmol/l UDP—[^14C]GlcNAc (manufactured by Amersham), 0.4% Triton CF-54, 10 mmol/l MnCl2, 250 μmol/l glycolipid, the cell extract prepared in the above (1) (20 μg as protein)]. As glycolipids, lactosylceramide (manufactured by SIGMA) and paragloboside (obtained from Yasunori Kushi at Tokyo Medical and Dental University) were used. After completion of the reaction, 200 μl of 0.1 mol/l KCl was added and lightly centrifuged to obtain the supernatant. The supernatant was passed through Sep-Pak plus C18 Cartridge (Waters), which had been washed once with 10 ml of methanol and equilibrated twice with 10 ml of 0.1 mol/l KCl, to adsorb the glycolipid in the supernatant onto the cartridge. After washing the cartridge twice with 10 ml of pure water for HPLC, the adsorbed glycolipid was eluted with 5 ml of methanol. After concentrating the eluate to about 10 μl by using a vacuum dryer, the concentrated solution was spotted on a TLC plate (HPTLC plate Silica gel 60: manufactured by MERCK) and developed using a developing solvent comprising a composition of chloroform:methanol:water (containing 0.2% CaCl2)=65:35:8. After the development was carried out to a position 5 mm from the upper end of the TLC plate, the plate was dried and then the radioactivity incorporated into the glycolipid was measured using Bio Image Analyzer BAS 2000 (manufactured by Fuji Photo Film).

G6sec2 [2] = target: T2, G6sec2 (Homo sapiens, UniProt Q9BYG0); experiment: β1,3-N-acetylglucosaminyltransferase activity using glycolipids as substrates (purified enzyme); assay type: biochemical; conditions: for conversion efficiency: purified G6sec2 10 μl, 37° C., 16 hours
T2 construct: made in house; host or cells: Sf21 insect cells infected with pVL1393-F2G6sec2-derived recombinant baculovirus
T2 sequence (Q9BYG0 39-378): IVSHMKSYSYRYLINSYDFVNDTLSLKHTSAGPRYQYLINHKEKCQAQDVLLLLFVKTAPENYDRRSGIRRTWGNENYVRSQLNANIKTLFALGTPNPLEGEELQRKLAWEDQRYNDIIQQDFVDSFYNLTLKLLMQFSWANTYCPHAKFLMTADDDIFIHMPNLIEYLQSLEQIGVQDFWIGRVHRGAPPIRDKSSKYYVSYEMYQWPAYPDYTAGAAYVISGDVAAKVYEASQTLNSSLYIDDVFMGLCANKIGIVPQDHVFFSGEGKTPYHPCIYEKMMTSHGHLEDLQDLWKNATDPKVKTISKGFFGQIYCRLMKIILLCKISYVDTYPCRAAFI
Method: Using glycolipids as the substrate, β1,3-N-acetylglucosaminyltransferase activity of the G6 polypeptide was measured according to known methods [FEBS, 462, 289 (1999), J. Biol. Chem., 269, 14730-14737 (1994), J. Biol. Chem., 267, 23507 (1992), J. Biol. Chem., 267, 2994 (1992)]. Specifically, the reaction was carried out at 37° C. for 16 hours in 20 μl of a reaction solution [150 mmol/l sodium cacodylate (pH 7.2), 10 mmol/l UDP-GlcNAc (manufactured by SIGMA), 480 μmol/l UDP—[^14C]GlcNAc (manufactured by Amersham), 0.4% Triton CF-54, 10 mmol/l MnCl2, […] glycolipid, purified enzyme (G6sec2)]. As the purified enzyme (G6sec2), 10 μl of the enzyme obtained in the above (2) was used. As glycolipids, lactosylceramide, paragloboside, galactosylceramide (Type I) and galactosylceramide (Type II) were used. Paragloboside was obtained from Yasunori Kushi at Tokyo Medical and Dental University. Other glycolipids were purchased from SIGMA. After completion of the reaction, 200 μl of 0.1 mol/l KCl was added and lightly centrifuged to obtain the supernatant. The supernatant was passed through Sep-Pak plus C18 Cartridge (manufactured by Waters) which had been washed once with 10 ml of methanol and equilibrated by washing twice with 10 ml of 0.1 mol/l KCl to adsorb the glycolipid in the supernatant onto the cartridge. After washing the cartridge twice with 10 ml of pure water for HPLC, the adsorbed glycolipid was eluted with 5 ml of methanol. After concentrating the eluate to about 10 μl using a vacuum dryer, the concentrated solution was plotted on a TLC plate (HPTLC plate Silica gel 60: manufactured by MERCK) and developed using a developing solvent comprising a composition of chloroform:methanol:water (containing 0.2% CaCl2)=65:35:8. After the development was carried out to a position 5 mm from the upper end of the TLC plate, the plate was dried and then the radioactivity incorporated into the glycolipid was measured using Bio Image Analyzer BAS 2000 (manufactured by Fuji Photo Film).

G6sec1 = target: T3, G6sec1 (Homo sapiens, UniProt Q9BYG0); experiment: GlcNAc β1,3-galactosyltransferase activity measurement; assay type: biochemical; conditions: 2-aminobenzamide-labeled substrate 88 μmol/l; UDP-Gal; 37° C., 16 hours
T3 construct: made in house; host or cells: Sf21 insect cells infected with pVL1393-F2G6sec1-derived recombinant baculovirus
T3 sequence (Q9BYG0 36-378): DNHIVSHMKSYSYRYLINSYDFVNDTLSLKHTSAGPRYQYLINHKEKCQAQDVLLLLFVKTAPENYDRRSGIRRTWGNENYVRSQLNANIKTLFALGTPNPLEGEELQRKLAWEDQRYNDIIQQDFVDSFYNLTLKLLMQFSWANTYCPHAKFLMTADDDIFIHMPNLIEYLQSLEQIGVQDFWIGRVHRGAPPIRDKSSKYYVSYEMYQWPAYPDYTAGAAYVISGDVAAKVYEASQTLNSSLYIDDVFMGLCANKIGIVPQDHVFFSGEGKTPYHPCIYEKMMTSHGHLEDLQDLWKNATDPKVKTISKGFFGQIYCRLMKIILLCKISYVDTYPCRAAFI
Method: (§1) The β1,3-galactosyltransferase activity measurement was carried out according to a conventional method [J. Biol. Chem., 274, 12499-12507 (1999)]. The reaction was carried out at 37° C. for 16 hours in 20 μl of an assay solution [14 mmol/l HEPES (pH 7.4), 75 μmol/l UDP-Gal (manufactured by SIGMA), 11 mmol/l MnCl2, 88 μmol/l sugar chain substrate, the above purified enzyme]. The amount of the enzyme used was the same as the amount used in the measurement of β1,3-N-acetylglucosaminyltransferase. As a substrate, 2-aminobenzamide-labeled GlcNAcβ1-3Galβ1-4GlcNAcβ1-3Galβ1-4GlcNAc (hereinafter referred to as “GlcNAc-2LN”) was used. The sugar chain was prepared by treating 2-aminobenzamide-labeled LN3 with β-galactosidase and thereby removing the terminal galactose residue. Specifically, 100 milli-units of β-galactosidase (manufactured by Seikagaku Corporation) were added to about 60 nmol of 2-aminobenzamide-labeled LN3, the reaction was carried out at 37° C. for 16 hours, and the sugar chain was prepared by inactivating β-galactosidase through its heat treatment at 100° C. for 5 minutes.

G6sec2 [3] = target: T2, G6sec2; experiment: as above; assay type: biochemical; conditions: 2-aminobenzamide-labeled substrate 88 μmol/l; UDP-Gal; 37° C., 16 hours
Method: as §1

G6sec2 [4] = target: T2, G6sec2; experiment: β1,3-N-acetylglucosaminyltransferase activity using unlabeled oligosaccharides as substrates (HPAE/PAD); assay type: biochemical
Method: The glycosyltransferase reaction was carried out as follows. The reaction was carried out at 37° C. for 16 hours in 40 μl of an assay solution [50 mmol/l MOPS (pH 7.5), 5 mmol/l UDP-GlcNAc (manufactured by SIGMA), 5 mmol/l MnCl2, 10 mmol/l sugar chain substrate, a purified enzyme solution (G6sec2)]. Next, the mixture was treated at 100° C. for 5 minutes and then centrifuged at 10,000×g for 20 minutes to obtain a supernatant, and a part thereof was analyzed using HPAE/PAD ([…]; manufactured by DIONEX). The method was specifically carried out according to a conventional method [Anal. Biochem., 189, 151-162 (1990), J. Biol. Chem., 273, 433-440 (1998)].
As a purified enzyme (G6sec2), […] of the enzyme obtained in the above (2) was used. As substrates, unlabeled oligosaccharides [lactose (Galβ1-4Glc) and LNnT] were used.
After the reaction on each substrate using an assay solution containing UDP-GlcNAc (saccharide donor) and an assay solution containing no donor, analysis was carried out using HPAE/PAD and peaks appeared only in the assay solution containing UDP-GlcNAc were defined as products. The product was identified using coincidence of its elution time with that of standard sugar chain as the index. As standard sugar chains, GlcNAcβ1-3Galβ1,4Glc and GlcNAcβ1-3Galβ1,4GlcNAcβ1-3Galβ1-4Glc were used.

O[C@H]1[C@H]2[C@H](O)CCCN2C[C@H]1O [swainsonine]
reactivity to OSK28 antibody ([1]; 10 μg/ml): reduced

lactosylceramide
conversion efficiency into the product (G6 polypeptide): 0.125%
conversion efficiency (G6sec2 [2]; glycolipid substrate): 5.39%

GlcNAcβ1-3Galβ1-4GlcNAcβ1-3Galβ1-4GlcNAc [GlcNAc-2LN]
GlcNAc β1,3-galactosyltransferase activity (G6sec1): did not show
GlcNAc β1,3-galactosyltransferase activity (G6sec2 [3]): did not show

CC(=O)N[C@H]1[C@@H](OCc2ccccc2)O[C@H](CO)[C@H](O)[C@@H]1O [benzyl-α-GalNAc]
reactivity to OSK28 antibody in comparison with absence of inhibitor ([1]; 4 mmol/l): sharply reduced

OC[C@H]1O[C@@H](O[C@H]2[C@H](O)[C@@H](O)C(O)O[C@@H]2CO)[C@H](O)[C@@H](O)[C@H]1O (stereo partly shown) [lactose]
conversion efficiency into the product (G6sec2 [4]; unlabeled oligosaccharide 10 mmol/l, 37° C., 16 hours): 0.30%
relative activity, LNnT as substrate defined as 100% (G6sec2 [4]; unlabeled oligosaccharides): 62.5%

paragloboside
conversion efficiency into the product (G6 polypeptide): 0.126%
activity relative to lactosylceramide as substrate defined as 100% (G6 polypeptide; glycolipid substrates): 96%
conversion efficiency (G6sec2 [2]; glycolipid substrate): 25.2%
activity relative to lactosylceramide as substrate defined as 100% (G6sec2 [2]; glycolipid substrates, purified G6sec2): 468%

galactosylceramide (Type I)
β1,3-N-acetylglucosaminyltransferase activity for the glycolipid (G6sec2 [2]; glycolipid substrate, purified G6sec2): did not show activity

Reference: patent publication US7629150B2, “Transformed cell harboring DNA or RNA encoding sugar chain synthesizing agent having β1,3-N-acetylglucosaminyltransferase activity” (Kyowa Hakko Kirin Co., Ltd., priority 2000, dated 2009)
